This passage reports EC50 results from patent US11440915B2, “Triazolo-azepine derivatives” (Hoffmann-La Roche Inc., priority 2017, dated 2022).

The target in this experiment is γ-secretase (Homo sapiens (Human), UniProt P49768). Kind of experiment: Cellular γ-secretase assay (inhibition of Aβ42 secretion, AlphaLisa). The class given is cell-based. The conditions noted are these: human neuroglioma H4 cells overexpressing human APP695 Swedish double mutation, 24 hr compound incubation. On the procedure:
Human neuroglioma H4 cells overexpressing human APP695 with the Swedish double mutation (K595N/M596L) were plated at 30,000 cells/well/100 μl in 96-well plates in IMDM media containing 10% FCS, 0.2 mg/l Hygromycin B and incubated at 37° C., 5% CO2.
3-4 hr post plating, compounds are a diluted in media and 50 μl is added as 1.5-fold concentrate to achieve the final concentration. Compound incubation is performed for 24 hr. Final doses typically range from 4 μM down to 0.001 μM in half-log steps resulting in a eight point dose response curve.
Appropriate controls using vehicle only and reference compound were applied to this assay. The final concentration of Me2SO was 0.4%.
After incubation at 37° C., 5% CO2, the supernatant was subjected to quantification of secreted Aβ42 by the means of an AlphaLisa assay kit (Human Amyloid beta 1-42 Kit: Cat #AL203C, Perkin Elmer). 20 μl of the cell culture supernatant was transferred to an assay plate. Then 10 μl of a mixture of the AlphaLisa coupled capture antibody and the biotinylated detection antibody was added and incubated for 3 hours at room temperature while softly shaking the assay plate. After a further addition of 20 μl of the Donor beads the assay plate was incubated for 30 min at room temperature and constant shaking without exposure to direct light. The assay plate was then read on a Paradigm AlphaLisa Reader using the build-in program with excitation at 680 nm and emission at 570 nm.
The measured signals were then used to calculate IC50 values for inhibition of Aβ42 secretion by nonlinear regression fit analysis using XLfit 5.3 software (IDBS).
`Cc1cn(C23CC(Nc4nc5n(n4)CCCC[C@@H]5c4cccc(Cl)c4)(C2)C3)cn1` [Example 1, (9R)-9-(3-chlorophenyl)-N-[3-(4-methylimidazol-1-yl)-1-bicyclo[1.1.1]pentanyl]-6,7,8,9-tetrahydro-5H-[1,2,4]triazolo[1,5-a]azepin-2-amine] showed an EC50 of 15 nM.
To `Cc1cn(C23CC(Nc4nc5n(n4)CCCC[C@H]5c4cccc(Cl)c4)(C2)C3)cn1` [Example 2, (9S)-9-(3-chlorophenyl)-N-[3-(4-methylimidazol-1-yl)-1-bicyclo[1.1.1]pentanyl]-6,7,8,9-tetrahydro-5H-[1,2,4]triazolo[1,5-a]azepin-2-amine] belongs 16 nM.
The result for `Cc1cn(C23CC(Nc4nc5n(n4)CCCC[C@@H]5c4ccc(F)cc4)(C2)C3)cn1` [Example 3, (9R)-9-(4-fluorophenyl)-N-[3-(4-methylimidazol-1-yl)-1-bicyclo[1.1.1]pentanyl]-6,7,8,9-tetrahydro-5H-[1,2,4]triazolo[1,5-a]azepin-2-amine] reads 25 nM; that for `Cc1cn(C23CC(Nc4nc5n(n4)CCCC[C@H]5c4ccc(F)cc4)(C2)C3)cn1` [Example 4, (9S)-9-(4-fluorophenyl)-N-[3-(4-methylimidazol-1-yl)-1-bicyclo[1.1.1]pentanyl]-6,7,8,9-tetrahydro-5H-[1,2,4]triazolo[1,5-a]azepin-2-amine], 31 nM; that for `Cc1cn(C23CC(Nc4nc5n(n4)CCCC[C@@H]5c4ccc(Cl)cc4)(C2)C3)cn1` [Example 5, (9R)-9-(4-chlorophenyl)-N-[3-(4-methylimidazol-1-yl)-1-bicyclo[1.1.1]pentanyl]-6,7,8,9-tetrahydro-5H-[1,2,4]triazolo[1,5-a]azepin-2-amine], 26 nM.
The result for `Cc1cn(C23CC(Nc4nc5n(n4)CCCC[C@H]5c4ccc(Cl)cc4)(C2)C3)cn1` [Example 6, (9S)-9-(4-chlorophenyl)-N-[3-(4-methylimidazol-1-yl)-1-bicyclo[1.1.1]pentanyl]-6,7,8,9-tetrahydro-5H-[1,2,4]triazolo[1,5-a]azepin-2-amine] reads 23 nM; that for `Cc1cn(C23CCC(Nc4nc5n(n4)CCCC[C@@H]5c4cc(F)cc(Cl)c4)(CC2)CC3)cn1` [Example 7, (9R)-9-(3-chloro-5-fluoro-phenyl)-N-[4-(4-methylimidazol-1-yl)-1-bicyclo[2.2.2]octanyl]-6,7,8,9-tetrahydro-5H-[1,2,4]triazolo[1,5-a]azepin-2-amine], 15 nM; that for `Cc1cn(C23CCC(Nc4nc5n(n4)CCCC[C@H]5c4cc(F)cc(Cl)c4)(CC2)CC3)cn1` [Example 8, (9S)-9-(3-chloro-5-fluoro-phenyl)-N-[4-(4-methylimidazol-1-yl)-1-bicyclo[2.2.2]octanyl]-6,7,8,9-tetrahydro-5H-[1,2,4]triazolo[1,5-a]azepin-2-amine], 14 nM.
As to `Cc1cn(C23CC(Nc4nc5n(n4)CCCC[C@@H]5c4cc(F)cc(Cl)c4)(C2)C3)cn1` [Example 9, (9R)-9-(3-chloro-5-fluoro-phenyl)-N-[3-(4-methylimidazol-1-yl)-1-bicyclo[1.1.1]pentanyl]-6,7,8,9-tetrahydro-5H-[1,2,4]triazolo[1,5-a]azepin-2-amine], the response was half-maximal at 8 nM (EC50).
With `Cc1cn(C23CC(Nc4nc5n(n4)CCCC[C@H]5c4cc(F)cc(Cl)c4)(C2)C3)cn1` [Example 10, (9S)-9-(3-chloro-5-fluoro-phenyl)-N-[3-(4-methylimidazol-1-yl)-1-bicyclo[1.1.1]pentanyl]-6,7,8,9-tetrahydro-5H-[1,2,4]triazolo[1,5-a]azepin-2-amine], the EC50 is 14 nM.
For the molecule `Cc1cn(C23CCC(Nc4nc5n(n4)CCCC[C@@H]5c4ccc(F)c(F)c4)(CC2)CC3)cn1` [Example 11, (9R)-9-(3,4-difluorophenyl)-N-[4-(4-methylimidazol-1-yl)-1-bicyclo[2.2.2]octanyl]-6,7,8,9-tetrahydro-5H-[1,2,4]triazolo[1,5-a]azepin-2-amine], the EC50 amounted to 39 nM.
The result for `Cc1cn(C23CCC(Nc4nc5n(n4)CCCC[C@H]5c4ccc(F)c(F)c4)(CC2)CC3)cn1` [Example 12, (9S)-9-(3,4-difluorophenyl)-N-[4-(4-methylimidazol-1-yl)-1-bicyclo[2.2.2]octanyl]-6,7,8,9-tetrahydro-5H-[1,2,4]triazolo[1,5-a]azepin-2-amine] reads 49 nM.
To `Cc1cn(C23CC(Nc4nc5n(n4)CCCC[C@@H]5c4ccc(F)c(F)c4)(C2)C3)cn1` [Example 13, (9R)-9-(3,4-difluorophenyl)-N-[3-(4-methylimidazol-1-yl)-1-bicyclo[1.1.1]pentanyl]-6,7,8,9-tetrahydro-5H-[1,2,4]triazolo[1,5-a]azepin-2-amine] belongs 44 nM.
To `Cc1cn(C23CC(Nc4nc5n(n4)CCCC[C@H]5c4ccc(F)c(F)c4)(C2)C3)cn1` [Example 14, (9S)-9-(3,4-difluorophenyl)-N-[3-(4-methylimidazol-1-yl)-1-bicyclo[1.1.1]pentanyl]-6,7,8,9-tetrahydro-5H-[1,2,4]triazolo[1,5-a]azepin-2-amine] belongs 27 nM; to `Cc1cn(C23CC(Nc4nc5n(n4)CCCC[C@@H]5c4ccccc4F)(C2)C3)cn1` [Example 15, (9R)-9-(2-fluorophenyl)-N-[3-(4-methylimidazol-1-yl)-1-bicyclo[1.1.1]pentanyl]-6,7,8,9-tetrahydro-5H-[1,2,4]triazolo[1,5-a]azepin-2-amine], 38 nM; to `Cc1cn(C23CC(Nc4nc5n(n4)CCCC[C@H]5c4ccccc4F)(C2)C3)cn1` [Example 16, (9S)-9-(2-fluorophenyl)-N-[3-(4-methylimidazol-1-yl)-1-bicyclo[1.1.1]pentanyl]-6,7,8,9-tetrahydro-5H-[1,2,4]triazolo[1,5-a]azepin-2-amine], 19 nM.
The molecule `Cc1cn(C23CCC(Nc4nc5n(n4)CCCC[C@@H]5c4ccccc4F)(CC2)CC3)cn1` [Example 17, (9R)-9-(2-fluorophenyl)-N-[4-(4-methylimidazol-1-yl)-1-bicyclo[2.2.2]octanyl]-6,7,8,9-tetrahydro-5H-[1,2,4]triazolo[1,5-a]azepin-2-amine] gave an EC50 of 56 nM. Against the preceding molecule, the EC50 is about 2.9-fold higher.
To `Cc1cn(C23CCC(Nc4nc5n(n4)CCCC[C@H]5c4ccccc4F)(CC2)CC3)cn1` [Example 18, (9S)-9-(2-fluorophenyl)-N-[4-(4-methylimidazol-1-yl)-1-bicyclo[2.2.2]octanyl]-6,7,8,9-tetrahydro-5H-[1,2,4]triazolo[1,5-a]azepin-2-amine] belongs 62 nM.
The result for `Cc1cn(C23CC(Nc4nc5n(n4)CCCC[C@@H]5c4ccc(F)c(F)c4F)(C2)C3)cn1` [Example 19, (9R)-N-[3-(4-methylimidazol-1-yl)-1-bicyclo[1.1.1]pentanyl]-9-(2,3,4-trifluorophenyl)-6,7,8,9-tetrahydro-5H-[1,2,4]triazolo[1,5-a]azepin-2-amine] reads 14 nM; that for `Cc1cn(C23CC(Nc4nc5n(n4)CCCC[C@H]5c4ccc(F)c(F)c4F)(C2)C3)cn1` [Example 20, (9S)-N-[3-(4-methylimidazol-1-yl)-1-bicyclo[1.1.1]pentanyl]-9-(2,3,4-trifluorophenyl)-6,7,8,9-tetrahydro-5H-[1,2,4]triazolo[1,5-a]azepin-2-amine], 10 nM; that for `Cc1cn(C23CCC(Nc4nc5n(n4)CCCC[C@@H]5c4ccc(F)c(F)c4F)(CC2)CC3)cn1` [Example 21, (9R)-N-[4-(4-methylimidazol-1-yl)-1-bicyclo[2.2.2]octanyl]-9-(2,3,4-trifluorophenyl)-6,7,8,9-tetrahydro-5H-[1,2,4]triazolo[1,5-a]azepin-2-amine], 43 nM.
The molecule `Cc1cn(C23CCC(Nc4nc5n(n4)CCCC[C@H]5c4ccc(F)c(F)c4F)(CC2)CC3)cn1` [Example 22, (9S)-N-[4-(4-methylimidazol-1-yl)-1-bicyclo[2.2.2]octanyl]-9-(2,3,4-trifluorophenyl)-6,7,8,9-tetrahydro-5H-[1,2,4]triazolo[1,5-a]azepin-2-amine] gave an EC50 of 27 nM.

The term EC50 denotes the concentration at which the effect is half-maximal. The low end stands for an effect from little substance, the high end for a need for much substance.
